Reference: patent US4818767A, “Quinate salts of antimalarial phenanthrenemethanol compounds” (SmithKline Beckman Corporation, priority 1983, dated 1989)
Where a name gives a salt, the structure may show the parent alone.

Assays:
[1] = in vivo; cited from earlier work
[2] = test system: Cambodian Buchanan strain of P. falciparum; conditions: administered over a short period of time, minimum of two doses; cited from earlier work
[3] = test system: Chesson strain of P. vivax; conditions: administered over a short period of time, minimum of two doses; cited from earlier work
P. berghei = assay: antimalarial activity, standard in vivo test procedure against P. berghei in Swiss mice (ED50 on day 4 of treatment); conditions: for ED50 Day 4 (mean values): effective dose which decreases the cell parasitemia by 50 percent on day 4 of treatment: Swiss mice infected i.p. with P. berghei, oral intubation in 0.2% methyl cellulose, 1, 4, 16 mg/kg/day × 4 days, 4 mice per group, 5760 min
Procedure: The antimalarial activity of 1-[1,3-dichloro-6-trifluoromethyl-9-phenanthryl]-3-di(n-butyl)aminopropanol quinate (Compound A) was established utilizing the following methodology. Test animals were infected by interperitoneal injection of 9×10^6 parasitized cells of P. berghei contained in 0.25 ml of 1:40 dilution in 0.9% aqueous sodium chloride with potassium citrate added of donor mouse blood which was infected with P. berghei one week earlier. Three days after injection, 3 groups of 4 mice (2 males and 2 females) were treated with Compound A at a dose level of 1, 4 and 16 mg/kg/day for 4 consecutive days. Similarly, a positive control of 3 groups of 4 mice (2 males and 2 females) were treated with halofantrine, as the hydrochloride salt, at a dose level of 1, 4 and 16 mg/kg/day for 4 consecutive days. The route of administration of Compound A and halofantrine was oral intubation of a suspension of each compound in 0.2% methyl cellulose at a constant volume of […]. A negative control group of 4 mice (2 males and 2 females) remained untreated. The results of the above test procedure expressed as an ED50 (the effective dose which decrease the cell parasitemia by 50 percent on day 4 of treatment) are shown below in Table I.

[4] = test system: multi-drug resistant Vietnam Smith strain of P. falciparum; conditions: administered over a short period of time, minimum of two doses; cited from earlier work
water solubility = type: physicochemical; conditions: weight to weight basis

## CCCCN(CCCC)CCC(O)c1cc2c(Cl)cc(Cl)cc2c2cc(C(F)(F)F)ccc12 (centres unmarked) [Halofantrine (HCl), 1-[1,3-dichloro-6-trifluoromethyl-9-phenanthryl]-3-di-(n-butyl)-aminopropanol hydrochloride]
[1]
  systemic bioavailability: problems with systemic bioavailability remained
[2]
  effectiveness against Cambodian Buchanan strain: effective
[3]
  effectiveness against Chesson strain of P. vivax: effective
P. berghei; hydrochloride
  ED50 Day 4 (mean values): effective dose which decreases the cell parasitemia by 50 percent on day 4 of treatment: 6 mg/kg
[4]
  effectiveness against Vietnam Smith strain: effective

## CCCCN(CCCC)CCC(O)c1cc2c(Cl)cc(Cl)cc2c2cc(C(F)(F)F)ccc12 (centres unmarked) [Compound A, 1-[1,3-dichloro-6-trifluoromethyl-9-phenanthryl]-3-di(n-butyl)aminopropanol quinate]
Water solubility
  solubility: ≤ 200 mg/mL
P. berghei; P. berghei malaria in mice, compared to halofantrine hydrochloride
  times more effective, on a weight by weight basis, than halofantrine hydrochloride (ED50 on day 4): at least 6 times
P. berghei
  ED50 Day 4 (mean values): effective dose which decreases the cell parasitemia by 50 percent on day 4 of treatment: ≤ 1 mg/kg
